The values that follow come from ChEMBL document CHEMBL3886852, “Triazolo compounds as PDE10 inhibitors” (2016).

Each structure is given as a SMILES string. pIC50: −log10 of the molar value.

Sequence of cAMP and cAMP-inhibited cGMP 3',5'-cyclic phosphodiesterase 10A (Q9Y233 whole entry): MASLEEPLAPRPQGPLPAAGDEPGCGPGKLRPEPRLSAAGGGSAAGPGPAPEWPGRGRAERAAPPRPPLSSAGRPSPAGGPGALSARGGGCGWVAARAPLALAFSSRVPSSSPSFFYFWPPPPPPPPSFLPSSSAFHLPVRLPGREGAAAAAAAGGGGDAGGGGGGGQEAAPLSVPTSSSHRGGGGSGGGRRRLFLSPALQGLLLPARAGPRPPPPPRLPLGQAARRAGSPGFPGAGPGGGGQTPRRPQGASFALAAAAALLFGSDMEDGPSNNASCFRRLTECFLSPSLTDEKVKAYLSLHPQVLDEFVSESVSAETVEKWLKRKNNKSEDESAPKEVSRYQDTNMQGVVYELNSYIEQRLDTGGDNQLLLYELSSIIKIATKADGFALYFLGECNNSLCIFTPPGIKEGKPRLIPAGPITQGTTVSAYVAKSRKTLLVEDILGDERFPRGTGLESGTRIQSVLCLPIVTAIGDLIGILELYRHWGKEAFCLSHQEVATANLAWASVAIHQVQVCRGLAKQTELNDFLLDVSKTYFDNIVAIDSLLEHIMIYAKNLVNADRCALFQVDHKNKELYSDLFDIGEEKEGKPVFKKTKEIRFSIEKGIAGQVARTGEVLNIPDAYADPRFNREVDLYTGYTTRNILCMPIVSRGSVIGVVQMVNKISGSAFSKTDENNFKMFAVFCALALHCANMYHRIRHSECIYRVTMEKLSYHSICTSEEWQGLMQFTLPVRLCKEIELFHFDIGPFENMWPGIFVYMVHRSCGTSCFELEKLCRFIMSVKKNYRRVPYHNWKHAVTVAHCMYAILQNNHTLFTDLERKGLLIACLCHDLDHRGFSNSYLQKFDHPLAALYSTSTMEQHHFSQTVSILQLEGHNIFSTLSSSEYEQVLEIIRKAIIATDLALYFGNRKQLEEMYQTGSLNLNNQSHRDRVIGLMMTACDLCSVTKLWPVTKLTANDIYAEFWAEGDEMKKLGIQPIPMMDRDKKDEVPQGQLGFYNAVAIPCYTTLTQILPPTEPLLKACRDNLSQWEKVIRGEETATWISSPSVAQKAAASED

The assay has as its target cAMP and cAMP-inhibited cGMP 3',5'-cyclic phosphodiesterase 10A (Homo sapiens, UniProt Q9Y233). The assay is described as follows: Scintillation Proximity Assay: The human PDE10A full length assay was performed in 96-well micro titer plates. The reaction mixture of 50 μl contained 20 mM HEPES pH=7.5/10 mM MgCl2/0.05 mg/ml BSA (Sigma cat. # A-7906), 50 nM cGMP (Sigma, cat. # G6129) and 50 nM [3H]-cGMP (GE Healthcare, cat. # TRK392 S.A. 13.2 Ci/mmol), 3.75 ng/well PDE10A enzyme (Enzo Life Science, Lausen, Switzerland cat # SE-534) with or without a specific test compound. A range of concentrations of the potential inhibitor was used to generate data for calculating the concentration of inhibitor resulting in 50% of the effect (e.g. IC50, the concentration of the competitor inhibiting PDE10A activity by 50%). Non-specific activity was tested without the enzyme. The reaction was initiated by the addition of the substrate solution (cGMP and [3H]-cGMP) and allowed to progress for 20 minutes at room temperature. The reaction was terminated by adding 25 μl of YSi-SPA scintillation beads (GE Healthcare, cat. # RPNQ0150) in 18 mM zinc sulphate solution (stop reagent). After 1 h under shaking, the plate was centrifuged one minute at 170 g to allow beads to settle. Afterwards, radioactive counts were measured on a Perkin Elmer Top-Count Scintillation plate reader.
As usually defined, the pIC50 is −log10 of the IC50, conventionally taken in molar units. As to `Cc1c(C#N)ccc2nc(CCc3nc(N4CCCC4)nn3C)nn12`, the negative-log IC50 (pIC50) is 8.46. As for `Cc1ncc(C)n2nc(CCc3nc(N4CCCC4)n(C)n3)nc12`, the figure is 8.57; as for `Cc1ncc(C)n2nc(CCc3nc(N(C)C)nn3C)nc12`, 6.48; as for `Cn1nc(N2CCCC2)nc1CCc1nc2c(Br)cc(C(F)(F)F)cn2n1`, 7.44. The figure for `Cc1ccn2nc(CCc3nc(N4CCCC4)nn3C)nc2c1C` is 8.35.
